For 16 compounds, EC50 results are on record in patent US20260137819A1 (Radionetics Oncology, Inc., priority 2022, published 2026).

Structures are written as SMILES. pEC50: −log10 of the molar value.

The target in this test is T1, human follicle-stimulating hormone receptor (FSHR) (Homo sapiens, UniProt P23945).
T1 construct: host or cells: CHO-K1
T1 sequence (P23945 18-695): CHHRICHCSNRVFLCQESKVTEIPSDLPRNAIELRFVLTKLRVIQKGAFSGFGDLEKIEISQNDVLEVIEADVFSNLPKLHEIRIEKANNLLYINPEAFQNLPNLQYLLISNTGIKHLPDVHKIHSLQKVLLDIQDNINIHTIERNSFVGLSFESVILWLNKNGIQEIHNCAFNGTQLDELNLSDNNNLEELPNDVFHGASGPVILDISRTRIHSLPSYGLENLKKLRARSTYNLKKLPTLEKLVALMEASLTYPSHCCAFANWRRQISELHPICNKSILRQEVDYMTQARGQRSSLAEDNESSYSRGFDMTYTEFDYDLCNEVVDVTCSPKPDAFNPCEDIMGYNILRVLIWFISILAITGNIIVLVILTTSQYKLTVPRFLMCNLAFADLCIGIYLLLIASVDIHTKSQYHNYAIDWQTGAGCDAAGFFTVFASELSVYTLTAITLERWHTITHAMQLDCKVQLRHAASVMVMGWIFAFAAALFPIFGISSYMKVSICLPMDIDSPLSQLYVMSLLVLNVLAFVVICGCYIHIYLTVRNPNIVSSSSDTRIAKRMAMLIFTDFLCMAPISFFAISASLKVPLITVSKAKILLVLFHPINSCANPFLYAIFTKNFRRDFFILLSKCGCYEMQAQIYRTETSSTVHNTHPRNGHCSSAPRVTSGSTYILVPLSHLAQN
Nature of the test: Measurement of agonist cAMP production by activation of human FSHR. The test is classed as cell-based. The following applies: CHO-K1 human FSHR cells, 30 minutes at 37° C., HTRF cAMP kit; read-out: hFSHR Agonist cAMP EC50. The gist of the method: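 cAMP output was measured by HTRF after 30 min at 37 °C agonist exposure (0–10,000 nM final) in stably FSHR-transfected CHO-K1 cells. Lysate cAMP was read off a standard curve and fitted to obtain half-maximal EC50.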
For orientation: cAMP levels reflect the balance of adenylyl cyclase and phosphodiesterase activity.
Broadly, the pEC50 is the negative decadic logarithm of the EC50, by convention in mol/L. With `COc1cc2c(cc1-c1cncc(NC(=O)CCCNC(=O)CCOCCNC(=O)CN3CCN(CC(=O)O)CCN(CC(=O)O)CCN(CC(=O)O)CC3)c1)-c1c(c(C(=O)N3CCOCC3(C)C)nn1-c1cc(F)cc(F)c1)CO2` [Compound 57, 2,2′,2″-(10-(2-((2-(3-((4-((5-(1-(3,5-difluorophenyl)-3-(3,3-dimethylmorpholine-4-carbonyl)-7-methoxy-1,4-dihydrochromeno[4,3-c]pyrazol-8-yl)pyridin-3-yl)amino)-4-oxobutyl)amino)-3-oxopropoxy)ethyl)amino)-2-oxoethyl)-1,4,7,10-tetraazacyclododecane-1,4,7-triyl)triacetic acid--2,2,2-trifluoroacetic acid (1/1)], the pEC50 is 7.00 to 8.00. With `COc1cc2c(cc1-c1cncc(NC(=O)CCCNC(=O)[C@H](N)CCCCNC(=O)CN3CCN(CC(=O)O)CCN(CC(=O)O)CCN(CC(=O)O)CC3)c1)-c1c(c(C(=O)N3CCOCC3(C)C)nn1-c1cc(F)cc(F)c1)CO2` [Compound 58, (R)-2,2′,2″-(10-(2-((5-amino-6-((4-((5-(1-(3,5-difluorophenyl)-3-(3,3-dimethylmorpholine-4-carbonyl)-7-methoxy-1,4-dihydrochromeno[4,3-c]pyrazol-8-yl)pyridin-3-yl)amino)-4-oxobutyl)amino)-6-oxohexyl)amino)-2-oxoethyl)-1,4,7,10-tetraazacyclododecane-1,4,7-triyl)triacetic acid--2,2,2-trifluoroacetic acid (1/1)], the pEC50 was 7.00 to 8.00. The value for `COc1cc2c(cc1-c1cncc(NC(=O)CN(C)C(=O)CN(C)C(=O)CN(C)C(=O)CN(C)C(=O)CN(C)C(=O)CCNC(=O)CN3CCN(CC(=O)O)CCN(CC(=O)O)CCN(CC(=O)O)CC3)c1)-c1c(c(C(=O)N3CCOCC3(C)C)nn1-c1cc(F)cc(F)c1)CO2` [Compound 59] was less than 7.00. To `COc1cc2c(cc1-c1cncc(NC(=O)CCC(=O)N(CCOCCOCCC(=O)O)C3CCN(C(=O)CN4CCN(CC(=O)O)CCN(CC(=O)O)CCN(CC(=O)O)CC4)CC3)c1)-c1c(c(C(=O)N3CCOCC3(C)C)nn1-c1cc(F)cc(F)c1)CO2` [Compound 60, 2,2′,2″-(10-(2-(4-(N-(2-(2-(2-carboxyethoxy)ethoxy)ethyl)-4-((5-(1-(3,5-difluorophenyl)-3-(3,3-dimethylmorpholine-4-carbonyl)-7-methoxy-1,4-dihydrochromeno[4,3-c]pyrazol-8-yl)pyridin-3-yl)amino)-4-oxobutanamido)piperidin-1-yl)-2-oxoethyl)-1,4,7,10-tetraazacyclododecane-1,4,7-triyl)triacetic acid--formic acid (1/1)] belongs 7.00 to 8.00; to `COc1cc2c(cc1-c1cncc(NC(=O)CNC(=O)CC[C@@H](NC(=O)CN3CCN(CC(=O)O)CCN(CC(=O)O)CCN(CC(=O)O)CC3)C(=O)O)c1)-c1c(c(C(=O)N3CCOCC3(C)C)nn1-c1cc(F)cc(F)c1)CO2` [Compound 61, (R)-2,2′,2″-(10-(2-((1-carboxy-4-((2-((5-(1-(3,5-difluorophenyl)-3-(3,3-dimethylmorpholine-4-carbonyl)-7-methoxy-1,4-dihydrochromeno[4,3-c]pyrazol-8-yl)pyridin-3-yl)amino)-2-oxoethyl)amino)-4-oxobutyl)amino)-2-oxoethyl)-1,4,7,10-tetraazacyclododecane-1,4,7-triyl)triacetic acid], 7.00 to 8.00; to `COc1cc2c(cc1-c1cncc(NCCCNC(=O)CCOCCNC(=O)CN3CCN(CC(=O)O)CCN(CC(=O)O)CCN(CC(=O)O)CC3)c1)-c1c(c(C(=O)N3CCOCC3(C)C)nn1-c1cc(F)cc(F)c1)CO2` [Compound 62], 7.00 to 8.00. `COc1cc2c(cc1-c1cccc(NC(=O)C3CCC(CNC(=O)C(CS(=O)(=O)O)NC(=O)CN4CCN(CC(=O)O)CCN(CC(=O)O)CCN(CC(=O)O)CC4)CC3)c1)-c1c(c(C(=O)N3CCOCC3(C)C)nn1-c1cc(Cl)cc(Cl)c1)CO2` [Compound 65, 2,2′,2″-(10-(2-(((R)-1-((((1r,4R)-4-((3-(1-(3,5-dichlorophenyl)-3-(3,3-dimethylmorpholine-4-carbonyl)-7-methoxy-1,4-dihydrochromeno[4,3-c]pyrazol-8-yl)phenyl)carbamoyl)cyclohexyl)methyl)amino)-1-oxo-3-sulfopropan-2-yl)amino)-2-oxoethyl)-1,4,7,10-tetraazacyclododecane-1,4,7-triyl)triacetic acid]: the pEC50 is 7.00 to 8.00. The value for `COc1cc2c(cc1-c1cccc(NC(=O)CN3CCC(NC(=O)[C@H](CS(=O)(=O)O)NC(=O)CN4CCN(CC(=O)O)CCN(CC(=O)O)CCN(CC(=O)O)CC4)CC3)c1)-c1c(c(C(=O)N3CCOCC3(C)C)nn1-c1cc(Cl)cc(Cl)c1)CO2` [Compound 66] was 7.00 to 8.00; that for `COc1cc2c(cc1-c1cncc(NCCOCCOCCOCCOCCNC(=O)[C@H](CS(=O)(=O)O)NC(=O)CN3CCN(CC(=O)O)CCN(CC(=O)O)CCN(CC(=O)O)CC3)c1)-c1c(c(C(=O)N3CCOCC3(C)C)nn1-c1cc(Cl)cc(Cl)c1)CO2` [Compound 67, (R)-2,2′,2″-(10-(20-((5-(1-(3,5-dichlorophenyl)-3-(3,3-dimethylmorpholine-4carbonyl)-7-methoxy-1,4-dihydrochromeno|4,3-c|pyrazol-8-yl)pyridin-3-yl)amino)-2,5-dioxo-4-(sulfomethyl)-9,12,15,18-tetraoxa-3,6-diazaicosyl)-1,4,7,10-tetraazacyclododecane-1,4,7-triyl)triacetic acid--2,2,2-trifluoroacetic acid (1/1)] was greater than 8.00; that for `COc1cc2c(cc1-c1cncc(OCCOCCOCCOCCOCCNC(=O)[C@H](CS(=O)(=O)O)NC(=O)CN3CCN(CC(=O)O)CCN(CC(=O)O)CCN(CC(=O)O)CC3)c1)-c1c(c(C(=O)N3CCOCC3(C)C)nn1-c1cc(Cl)cc(Cl)c1)CO2` [Compound 68, (R)-2,2′,2″-(10-(20-((5-(1-(3,5-dichlorophenyl)-3-(3,3-dimethylmorpholine-4carbonyl)-7-methoxy-1,4-dihydrochromeno|4,3-c|pyrazol-8-yl)pyridin-3-yl)oxy)-2,5-dioxo-4-(sulfomethyl)-9,12,15,18-tetraoxa-3,6-diazaicosyl)-1,4,7,10-tetraazacyclododecane-1,4,7-triyl)triacetic acid] was greater than 8.00. `COc1cc2c(cc1-c1cccc(NC(=O)CCOCCOCCNC(=O)[C@H](CS(=O)(=O)O)NC(=O)CN3CCN(CC(=O)O)CCN(CC(=O)O)CCN(CC(=O)O)CC3)c1)-c1c(c(C(=O)N3CCOCC3(C)C)nn1-c1cc(Cl)cc(Cl)c1)CO2` [Compound 69]: the pEC50 was greater than 8.00. To `COc1cc2c(cc1-c1cccc(NCCOCCOCCOCCOCCNC(=O)[C@H](CS(=O)(=O)O)NC(=O)CN3CCN(CC(=O)O)CCN(CC(=O)O)CCN(CC(=O)O)CC3)c1)-c1c(c(C(=O)N3CCOCC3(C)C)nn1-c1cc(Cl)cc(Cl)c1)CO2` [Compound 71] belongs greater than 8.00. The value for `COc1cc2c(cc1-c1cncc(COCCOCCOCCOCCNC(=O)[C@H](CS(=O)(=O)O)NC(=O)CN3CCN(CC(=O)O)CCN(CC(=O)O)CCN(CC(=O)O)CC3)c1)-c1c(c(C(=O)N3CCOCC3(C)C)nn1-c1cc(Cl)cc(Cl)c1)CO2` [Compound 72, (R)-2,2′,2″-(10-(1-(5-(1-(3,5-dichlorophenyl)-3-(3,3-dimethylmorpholine-4carbonyl)-7-methoxy-1,4-dihydrochromeno|4,3-c|pyrazol-8-yl)pyridin-3-yl)-15,18-dioxo-16-(sulfomethyl)-2,5,8,11-tetraoxa-14,17-diazanonadecan-19-yl)-1,4,7,10-tetraazacyclododecane-1,4,7-triyl)triacetic acid] was 7.00 to 8.00; that for `COc1cc2c(cc1-c1cccc(OCCCNC(=O)[C@@H](CCCNC(=N)N)NC(=O)CCNC(=O)CN3CCN(CC(=O)O)CCN(CC(=O)O)CCN(CC(=O)O)CC3)c1)-c1c(c(C(=O)N3CCOCC3(C)C)nn1-c1cc(Cl)cc(Cl)c1)CO2` [Compound 73] was greater than 8.00; that for `COc1cc2c(cc1-c1cccc(OCCCNC(=O)[C@@H](CCC(=O)O)NCCOCCNC(=O)[C@H](CS(=O)(=O)O)NC(=O)CN3CCN(CC(=O)O)CCN(CC(=O)O)CCN(CC(=O)O)CC3)c1)-c1c(c(C(=O)N3CCOCC3(C)C)nn1-c1cc(Cl)cc(Cl)c1)CO2` [Compound 74, 2,2′,2″-(10-((4R,13R)-13-(2-carboxyethyl)-18-(3-(1-(3,5-dichlorophenyl)-3(3,3-dimethylmorpholine-4-carbonyl)-7-methoxy-1,4-dihydrochromeno[4,3-c]pyrazol-8-yl)phenoxy)-2,5,14-trioxo-4-(sulfomethyl)-9-oxa-3,6,12,15-tetraazaoctadecyl)-1,4,7,10-tetraazacyclododecane-1,4,7-triyl)triacetic acid--2,2,2-trifluoroacetic acid (1/1)] was 7.00 to 8.00. The value for `COc1cc2c(cc1-c1cccc(OCCOCCOCCOCCOCCNC(=O)[C@H](CS(=O)(=O)O)NC(=O)CN3CCN(CC(=O)O)CCN(CC(=O)O)CCN(CC(=O)O)CC3)c1)-c1c(c(C(=O)N3CC(=O)NCC3(C)C)nn1-c1cc(Cl)cc(Cl)c1)CO2` [Compound 75] was 7.00 to 8.00.
